In US11053219B2, “Substituted pyridines as TYK2 inhibitors” (FronThera U.S. Pharmaceuticals LLC, priority 2018, dated 2021):

Tests used:
TYK2 (JH2 domain) = TYK2 (JH2 domain) (Homo sapiens (Human), UniProt P29597); experiment: TYK2 JH2 domain binding assay (DiscoverX KINOMEscan); conditions: 11-point 3-fold dilution, duplicate
Description: (§6) The assay is performed by combining three components: DNA-tagged kinase; immobilized ligand; and a test compound. The ability of the test compound to compete with the immobilized ligand is measured via quantitative PCR of the DNA tag.
(§7) The liganded beads were blocked with excess biotin and washed with blocking buffer (SeaBlock (Pierce), 1% BSA, 0.05% Tween 20, 1 mM DTT) to remove unbound ligand and to reduce non-specific binding. […] Test compounds were prepared as 111× stocks in 100% DMSO. All test compounds were shipped to DiscoverX in DMSO with concentration of 10 mM. Kds were determined using an 11-point 3-fold compound dilution series with three DMSO control points. Each compound was tested in duplicate. […] The compounds were then diluted directly into the assays such that the final concentration of DMSO was 0.9%. All reactions performed in polypropylene 384-well plate. Each was a final volume of 0.02 ml. […] The kinase concentration in the eluates was measured by qPCR.
(§8) The amount of kinase measured by qPCR (Signal; y-axis) is plotted against the corresponding compound concentration in nM in log 10 scale (x-axis). Binding constants (Kds) were calculated with a standard dose-response curve using the Hill equation:
The Hill Slope was set to −1.
Curves were fitted using anon-linear least square fit with the Levenberg-Marquardt algorithm.

[1] = system: INFα induced pSTAT5 in human PBMC; experiment: INFα induced pSTAT5 in human PBMC; format: cell-based; conditions: human PBMC, INFα 5000 units/ml; read-out: p-STAT5 IC50
JAK1 (JH2 domain) = JAK1 (JH2 domain) (Homo sapiens (Human), UniProt P23458); experiment: JAK1 JH2 domain binding assay (KINOMEscan); conditions: KINOMEscan; read-out: JAK1 (JH2 domain) binding Kd
JAK1 (JH2 domain), sequence (P23458 583-855): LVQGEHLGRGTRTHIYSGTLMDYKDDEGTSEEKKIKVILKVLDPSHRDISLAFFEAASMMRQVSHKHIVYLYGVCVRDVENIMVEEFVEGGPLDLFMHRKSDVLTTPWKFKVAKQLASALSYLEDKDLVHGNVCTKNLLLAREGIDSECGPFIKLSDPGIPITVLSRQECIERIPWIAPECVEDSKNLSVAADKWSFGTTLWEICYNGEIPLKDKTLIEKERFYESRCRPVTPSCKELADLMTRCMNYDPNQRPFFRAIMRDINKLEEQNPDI
Description: as §6, §7, §8
(§9) Similar to the method for TYK2 JH2 binding described above, JAK1 JH2 and JAK2 JH1 domain binding assay was performed using DiscoverX's KINOMEscan™, but with change of kinase domain.

JAK2 (JH1 domain) = JAK2 (JH1 domain) (Homo sapiens (Human), UniProt O60674); experiment: JAK2 JH1 domain binding assay (KINOMEscan)
JAK2 (JH1 domain), sequence (O60674 849-1124): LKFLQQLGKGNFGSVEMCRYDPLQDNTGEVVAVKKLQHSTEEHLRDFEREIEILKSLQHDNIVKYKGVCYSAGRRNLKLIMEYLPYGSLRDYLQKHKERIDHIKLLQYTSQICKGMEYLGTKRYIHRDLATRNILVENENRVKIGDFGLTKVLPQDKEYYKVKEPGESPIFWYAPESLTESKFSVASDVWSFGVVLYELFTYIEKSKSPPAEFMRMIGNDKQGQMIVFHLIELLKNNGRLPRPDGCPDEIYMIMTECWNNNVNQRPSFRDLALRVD
Description: as §6, §7, §8, §9

[2] = system: GM-CSF-induced pSTAT5 in human PBMC; experiment: GM-CSF-induced pSTAT5 in human PBMC; format: cell-based; conditions: GM-CSF 10 ng/ml
Description: (§1) Fresh Human PBMCs were resuspended in RPMI 1640 medium with 10% FBS. Cells were seeded in a round bottom 96-well plate at the concentration of 200,000 cells/well. A 10-point dilution series of test compound (top dose 10 uM, 1:5 dilution) was added to the well using the liquid dispenser (Tecan D300e) and incubated for 1 hour at 37 C. Then human IL-12 recombinant protein (R&D Systems) was added to the well at the final concentration of 10 ng/ml and incubated for 15 minutes at 37 C. Cell lysates were prepared and analyzed by Phospho STAT4 (Tyr693) Kit (Meso Scale Discovery) following manufacturer's protocol.
(§2) For calculation of the inhibition rate, the relative pSTAT4 signal of each well=pSTAT4 signal of each well−the average pSTAT4 signal of baseline. The inhibition %=(the average pSTAT4 signal of IL-12 treatment wells−the relative of pSTAT4 signal in each compound containing well)/the average pSTAT4 signal of IL-12 treatment wells*100%
(§3) The curve was plotted as the inhibition % (y-axis) vs. compounds concentration (x-axis) and was fitted with log(inhibitor) vs. normalized response—Variable slope by GraphPad Prism7.0. Control is BMS-986165:
(§4) Similar to the method for IL-12 induced pSTAT4 in human PBMC described above, these assays were performed to check if test compounds have cross-activity to JAK1. JAK2 and JAK3 pathways in human PBMC. The procedure is as described with change of stimuli to 10 ng/ml of GM-CSF or 20 ng/ml of IL-2.

[3] = system: IL-2-induced pSTAT5 in human PBMC; experiment: IL-2-induced pSTAT5 in human PBMC; format: cell-based; conditions: IL-2 20 ng/ml
Description: as §1, §2, §3, §4

[4] = Pharmacokinetic study in C57BL/6 mice; format: in vivo; design: AUC: unit not given here
Description: (§5) The pharmacokinetics of test compounds were evaluated in male C57BL/6 mice, Sprague Dawley rats, Beagle dogs, and cynomolgus monkeys when administered via oral gavage and IV injection. The animals were fasted overnight before administration. Plasma samples were collected predose and at 0.5, 1, 3, 6, 9, 12, and 24 hours postdose. The samples were analyzed by LC/MS/MS and the concentration of test compound at each timepoint was determined by linear regression. Pharmacokinetic parameters were calculated from the plasma concentrations using Pheonix WinNonlin.

[5] = Pharmacokinetic study in Sprague Dawley rats; format: in vivo; conditions: rat, plasma
Description: as §5

[6] = Pharmacokinetic study in Beagle dogs; format: in vivo; conditions: dog, plasma
Description: as §5

[7] = Pharmacokinetic study in cynomolgus monkeys; format: in vivo; conditions: cynomolgus monkey, plasma
Description: as §5

[8] = male, mouse, plasma, Oral (10 mg/kg)
[9] = male, mouse, plasma, iv, I.V. (2 mg/kg)
[10] = iv, I.V. (1 mg/kg), read-out: C0 or Cmax (C0)
[11] = iv, I.V. (1 mg/kg), read-out: Vdss
[12] = Oral (2 mg/kg), NA: no detectable

TYK2 (JH2 domain), sequence (P29597 589-875): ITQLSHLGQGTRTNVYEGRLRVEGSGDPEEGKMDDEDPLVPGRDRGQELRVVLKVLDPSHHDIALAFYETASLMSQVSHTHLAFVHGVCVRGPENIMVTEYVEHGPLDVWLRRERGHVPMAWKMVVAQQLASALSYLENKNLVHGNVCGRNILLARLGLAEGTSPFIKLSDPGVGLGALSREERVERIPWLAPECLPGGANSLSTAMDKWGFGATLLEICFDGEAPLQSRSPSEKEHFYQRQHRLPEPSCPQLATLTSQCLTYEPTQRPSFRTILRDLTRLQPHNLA

Which results are given for `[2H]C([2H])([2H])CC(=O)c1cnc(NC(=O)C2CC2)cc1Nc1nccc(-c2ncn(C([2H])([2H])[2H])n2)c1OC` [Example 200]?
Kd (TYK2 (JH2 domain)): ≤ 0.001 µM; IC50 [1]: < 0.1 µM; Kd (JAK1 (JH2 domain)): < 0.1 µM; Kd (JAK2 (JH1 domain)): 1 to 10 µM; IC50 [2]: > 10 µM; IC50 [3]: 1 to 10 µM; AUC ([4]; I.V. (2 mg/kg)): 4475; AUC ([4]; Oral (10 mg/kg)): 19295; Tmax [4, 8]: 0.25 h; bioavailability [4, 8]: 85.1%; half-life [4, 8]: 2.01 h; Cmax ([4]; male, mouse, plasma, Oral (10 mg/kg), read-out: C0 or Cmax (Cmax)): 4190 ng/mL; clearance [4, 9]: 7.35 mL/min/kg; half-life [4, 9]: 4.62 h; Cmax ([4]; male, mouse, plasma, iv, I.V. (2 mg/kg), read-out: C0 or Cmax (C0)): 2390 ng/mL; Vd ([4]; male, mouse, plasma, iv, I.V. (2 mg/kg), read-out: Vdss): 1.5 L/kg; AUC ([5]; Oral (5 mg/kg)): 3660 ± 684 ng·h/mL; Tmax ([5]; Oral (5 mg/kg)): 1 h; bioavailability ([5]; Oral (5 mg/kg)): 42.7 ± 8%; half-life ([5]; Oral (5 mg/kg)): 4.22 ± 3.6 h; Cmax ([5]; Oral (5 mg/kg), read-out: C0 or Cmax (Cmax)): 948 ± 43 ng/mL; AUC ([5]; iv, I.V. (1 mg/kg)): 1710 ± 19 ng·h/mL; clearance ([5]; iv, I.V. (1 mg/kg)): 9.42 ± 0.022 mL/min/kg; half-life ([5]; iv, I.V. (1 mg/kg)): 1.58 ± 0.21 h; Cmax [5, 10]: 1030 ± 47 ng/mL; Vd [5, 11]: 1.24 ± 0.065 L/kg; AUC ([6]; Oral (2 mg/kg)): 2620 ± 258 ng·h/mL; Tmax ([6]; Oral (2 mg/kg)): 1.33 h; bioavailability ([6]; Oral (2 mg/kg)): 82.9 ± 8.2%; half-life ([6]; Oral (2 mg/kg)): 8.51 ± 1.6 h; Cmax ([6]; Oral (2 mg/kg), read-out: C0 or Cmax (Cmax)): 247 ± 17 ng/mL; AUC ([6]; iv, I.V. (0.5 mg/kg)): 790 ± 196 ng·h/mL; half-life ([6]; iv, I.V. (0.5 mg/kg)): 11.5 ± 1.6 h; Cmax ([6]; iv, I.V. (0.5 mg/kg), read-out: C0 or Cmax (C0)): 29.7 ± 14 ng/mL; Vd ([6]; iv, I.V. (0.5 mg/kg), read-out: Vdss): 8.37 ± 1.39 L/kg; AUC [7, 12]: 4060 ± 251 ng·h/mL; Tmax [7, 12]: 2 h; bioavailability [7, 12]: 27.7 ± 1.7%; half-life [7, 12]: 8.6 ± 0.73 h; Cmax ([7]; Oral (2 mg/kg), NA: no detectable, read-out: C0 or Cmax (Cmax)): 384 ± 22 ng/mL; AUC ([7]; iv, I.V. (1 mg/kg)): 7320 ± 202 ng·h/mL; clearance ([7]; iv, I.V. (1 mg/kg)): 1.87 ± 0.21 mL/min/kg; half-life ([7]; iv, I.V. (1 mg/kg)): 9.35 ± 1.57 h; Cmax [7, 10]: 677 ± 81 ng/mL; Vd [7, 11]: 1.45 ± 0.18 L/kg
